Data from the supplement of paper PMC8671470.

The compounds below were run on myeloid leukemia patient primary cells Pat.7 (assay: cell viability (% survival relative to DMSO control); higher = less cytotoxic). Conditions: 10 nM; 72 h.
Outline: (§1)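 Thawed, Ficoll-purified mononuclear cells from AML or CML patients in RPMI 1640 with 10% FBS were seeded at 10,000 cells/well on 384-well plates pre-printed with 70 compounds at five tenfold concentrations, 1–10,000 nM, in duplicate, for 72 h. Viability was read by CellTiter-Glo and normalised to DMSO and 10 μM proteasome-inhibitor wells. Where given, area under the curve came from four-parameter log-logistic fits (drc, PharmacoGx R packages).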

SMILES | cell viability
Cn1cc(-c2ccncc2)c(-c2ccc(OCc3ccc4ccccc4n3)cc2)n1 | 73.5%
O=C(O)CC[N+](=O)[O-] [3-nitropropionic acid] | 99.9%
O=C(/C=C/c1ccc(O)c(O)c1)OCCc1ccccc1 [Caffeic acid phenethyl ester] | 79.4%
CCN(CC)C(=S)SSC(=S)N(CC)CC [Disulfiram] | 86.8%
c1cc(-c2cnn3cc(-c4ccc(OCCN5CCCCC5)cc4)cnc23)ccn1 [Dorsomorphin] | 95.4%
CN(Cc1cnc2nc(N)nc(N)c2n1)c1ccc(C(=O)N[C@@H](CCC(=O)O)C(=O)O)cc1 [Methotrexate] | 89.1%
CN(CCOc1ccc(Cc2sc(O)nc2O)cc1)c1ccccn1 [Rosiglitazone] | 60%

Same assay, conditions: 100 nM; 72 h

SMILES | cell viability
O=c1cc(N2CCOCC2)oc2c(-c3ccccc3)cccc12 | 94.8%
O=C1C(SCCO)=C(SCCO)C(=O)c2ccccc21 | 57.1%
Cn1cc(-c2ccncc2)c(-c2ccc(OCc3ccc4ccccc4n3)cc2)n1 | 82.7%
O=C(O)CC[N+](=O)[O-] [3-nitropropionic acid] | 82.6%
O=C(/C=C/c1ccc(O)c(O)c1)OCCc1ccccc1 [Caffeic acid phenethyl ester] | 78.2%
CCN(CC)C(=S)SSC(=S)N(CC)CC [Disulfiram] | 61.1%
c1cc(-c2cnn3cc(-c4ccc(OCCN5CCCCC5)cc4)cnc23)ccn1 [Dorsomorphin] | 65%
CN(Cc1cnc2nc(N)nc(N)c2n1)c1ccc(C(=O)N[C@@H](CCC(=O)O)C(=O)O)cc1 [Methotrexate] | 56.6%
CN(CCOc1ccc(Cc2sc(O)nc2O)cc1)c1ccccn1 [Rosiglitazone] | > 100%

Same assay, conditions: 1000 nM; 72 h

SMILES | cell viability
O=c1cc(N2CCOCC2)oc2c(-c3ccccc3)cccc12 | 92.1%
O=C1C(SCCO)=C(SCCO)C(=O)c2ccccc21 | < 0%
Cn1cc(-c2ccncc2)c(-c2ccc(OCc3ccc4ccccc4n3)cc2)n1 | 17.1%
O=C(O)CC[N+](=O)[O-] [3-nitropropionic acid] | 90.8%
O=C(/C=C/c1ccc(O)c(O)c1)OCCc1ccccc1 [Caffeic acid phenethyl ester] | 16.3%
CCN(CC)C(=S)SSC(=S)N(CC)CC [Disulfiram] | 71.7%
c1cc(-c2cnn3cc(-c4ccc(OCCN5CCCCC5)cc4)cnc23)ccn1 [Dorsomorphin] | 89.5%
CN(Cc1cnc2nc(N)nc(N)c2n1)c1ccc(C(=O)N[C@@H](CCC(=O)O)C(=O)O)cc1 [Methotrexate] | 15.2%
CN(CCOc1ccc(Cc2sc(O)nc2O)cc1)c1ccccn1 [Rosiglitazone] | 88.5%

Same assay, conditions: 10000 nM; 72 h

SMILES | cell viability
O=c1cc(N2CCOCC2)oc2c(-c3ccccc3)cccc12 | 80.5%
O=C1C(SCCO)=C(SCCO)C(=O)c2ccccc21 | < 0%
Cn1cc(-c2ccncc2)c(-c2ccc(OCc3ccc4ccccc4n3)cc2)n1 | 32.4%
O=C(O)CC[N+](=O)[O-] [3-nitropropionic acid] | 44.9%
O=C(/C=C/c1ccc(O)c(O)c1)OCCc1ccccc1 [Caffeic acid phenethyl ester] | < 0%
CCN(CC)C(=S)SSC(=S)N(CC)CC [Disulfiram] | < 0%
c1cc(-c2cnn3cc(-c4ccc(OCCN5CCCCC5)cc4)cnc23)ccn1 [Dorsomorphin] | 30.9%
CN(Cc1cnc2nc(N)nc(N)c2n1)c1ccc(C(=O)N[C@@H](CCC(=O)O)C(=O)O)cc1 [Methotrexate] | 34.5%
CN(CCOc1ccc(Cc2sc(O)nc2O)cc1)c1ccccn1 [Rosiglitazone] | 66%

What follows are compounds tested on myeloid leukemia patient primary cells Pat.1 in the same assay as above. Conditions: 1 nM; 72 h.
Outline: as §1

SMILES | cell viability
O=c1cc(N2CCOCC2)oc2c(-c3ccccc3)cccc12 | 77.8%
O=C1C(SCCO)=C(SCCO)C(=O)c2ccccc21 | 81.5%
Cn1cc(-c2ccncc2)c(-c2ccc(OCc3ccc4ccccc4n3)cc2)n1 | 82.2%
O=C(O)CC[N+](=O)[O-] [3-nitropropionic acid] | 84.1%
O=C(/C=C/c1ccc(O)c(O)c1)OCCc1ccccc1 [Caffeic acid phenethyl ester] | 98.5%
CCN(CC)C(=S)SSC(=S)N(CC)CC [Disulfiram] | 95%
c1cc(-c2cnn3cc(-c4ccc(OCCN5CCCCC5)cc4)cnc23)ccn1 [Dorsomorphin] | 76.7%
CN(Cc1cnc2nc(N)nc(N)c2n1)c1ccc(C(=O)N[C@@H](CCC(=O)O)C(=O)O)cc1 [Methotrexate] | 99.6%
CN(CCOc1ccc(Cc2sc(O)nc2O)cc1)c1ccccn1 [Rosiglitazone] | 80.1%

Same assay, conditions: 10 nM; 72 h

SMILES | cell viability
O=c1cc(N2CCOCC2)oc2c(-c3ccccc3)cccc12 | 83.5%
O=C1C(SCCO)=C(SCCO)C(=O)c2ccccc21 | 92.4%
Cn1cc(-c2ccncc2)c(-c2ccc(OCc3ccc4ccccc4n3)cc2)n1 | 91.2%
O=C(O)CC[N+](=O)[O-] [3-nitropropionic acid] | 94.1%
O=C(/C=C/c1ccc(O)c(O)c1)OCCc1ccccc1 [Caffeic acid phenethyl ester] | 93%
CCN(CC)C(=S)SSC(=S)N(CC)CC [Disulfiram] | 82.2%
c1cc(-c2cnn3cc(-c4ccc(OCCN5CCCCC5)cc4)cnc23)ccn1 [Dorsomorphin] | 93.2%
CN(Cc1cnc2nc(N)nc(N)c2n1)c1ccc(C(=O)N[C@@H](CCC(=O)O)C(=O)O)cc1 [Methotrexate] | > 100%
CN(CCOc1ccc(Cc2sc(O)nc2O)cc1)c1ccccn1 [Rosiglitazone] | 72.6%

Same assay, conditions: 100 nM; 72 h

SMILES | cell viability
O=c1cc(N2CCOCC2)oc2c(-c3ccccc3)cccc12 | 78%
O=C1C(SCCO)=C(SCCO)C(=O)c2ccccc21 | 88.1%
Cn1cc(-c2ccncc2)c(-c2ccc(OCc3ccc4ccccc4n3)cc2)n1 | 97.1%
O=C(O)CC[N+](=O)[O-] [3-nitropropionic acid] | > 100%
O=C(/C=C/c1ccc(O)c(O)c1)OCCc1ccccc1 [Caffeic acid phenethyl ester] | 98.4%
CCN(CC)C(=S)SSC(=S)N(CC)CC [Disulfiram] | 79.8%
c1cc(-c2cnn3cc(-c4ccc(OCCN5CCCCC5)cc4)cnc23)ccn1 [Dorsomorphin] | 78.1%
